# Entries after “also recorded” stand apart in the source; their conditions may differ.
# Tests used:
# [1] = U.S. Phase Ia trial of Compound A monotherapy: safety
# Procedure: (§1) Studies on the 200 mg and 300 mg cohorts were conducted in a standard 3+3 design.
# Drug-related adverse events (AEs), including DLT, non-hematologic AEs and hematologic AEs were recorded. […] The PK indexes of single dose administration included AUClast, AUCO-∞, Cmax, tmax, t1/2, CL/F and Vd/F. The PK indexes of steady state under continuous administration included AUCss, Cmax,ss and tmax,ss.
# [2] = system: 104 proteins (e.g., transporters, cell receptors, ion channels, and enzymes); test: off-target screenings against 104 proteins
# Excerpt: Both patents are incorporated by reference herein in their entirety.
# [3] = system: relapsed/refractory CLL, Hodgkin lymphoma and B-cell NHL including DLBCL; test: U.S. Phase Ia trial of Compound A monotherapy: efficacy; type: in vivo, human; parameters: key to response: PD: disease progression; conditions: for time on continued monotherapy treatment: treatment continuing
# Procedure: Eligibility criteria for the U.S. study were similar to the China study, but histological subtypes included patients with relapsed/refractory CLL, Hodgkin lymphoma and B-cell NHL including DLBCL. Patients who had prior exposure to BTK inhibiting agents were permitted in the trial.
# as §1
# (§2) The response rate, including the partial response and complete response rate, was defined according to the Revised International Working Group Criteria for non-Hodgkin's lymphoma (Cheson et al., J Clin Oncol 25:579-86 (2007)). Drug-related adverse events (AEs), including DLT, non-hematologic AEs and hematologic AEs were recorded. […] The PK indexes of single dose administration included AUClast, AUCO-∞, Cmax, tmax, t1/2, CL/F and Vd/F. The PK indexes of steady state under continuous administration included AUCss, Cmax,ss and tmax,ss.
# [4] = system: relapsed/refractory CLL and B-cell lymphomas; test: China and U.S. first-in-human monotherapy trials, overall conclusions
# Excerpt: The primary endpoint of the trials was safety, while the secondary endpoints of the trials were anti-tumor activity and pharmacokinetic parameters. Patients enrolled in the trials met the following criteria: relapsed/refractory CLL and B-cell lymphoma with no available effective therapies, ≥18 years of age, and an Eastern Cooperative Oncology Group (ECOG) score≤1. […] The 3+3 dose-escalation method was used.
# Relapsed/refractory B-cell lymphoma patients who met the aforementioned enrollment criteria were enrolled without randomization. […] The patients were required to stay in the hospital for 24 hours after the first dosing. […] The first 28 days of treatment was considered DLT period.
# as §1, §2
# [5] = five patients, 21 day dosing schedule
structure (smiles),measurement,setting,value
"C=CC(=O)N1CC[C@@H](n2nc(-c3ccc(Oc4c(F)c(F)cc(F)c4F)cc3F)c3c(N)ncnc32)C1 [Compound A, 1-((R)-3-(4-amino-3-(2-fluoro-4-(2,3,5,6-tetrafluorophenoxy)phenyl)-1H-pyrazolo[3,4-d]pyrimidin-1-yl)pyrrolidin-1-yl)prop-2-en-1-one]",discontinuation due to AEs and deaths,[1]; five patients,No patient discontinued study treatment due to AEs and no patient died on-study or within the 30-day follow-up period
same,hematologic single patient events,[1]; five patients,Grade 3 thrombocytopenia and Grade 3 neutropenia
same,non-hematologic single patient events,[1]; five patients,"Grade 3 lung infection, bronchitis, myalgia, nausea, fatigue and purpura (all Grade 1)"
same,"anemia, patients","[1]; five patients, 50-200 mg daily, 21 day dosing schedule",60%
same,"arthralgia, patients",[1]; [5],40%
same,"contusion, patients",[1]; [5],40%
same,grade of adverse events,[1]; [5],mostly Grade 1 and 2
same,"upper respiratory infection, patients",[1]; [5],40%
same,tolerability,"[1]; three additional patients, 300 mg",well tolerated
same,off-target inhibitory activities,[2],no off-target inhibitory activities
same,response,[3]; B-cell lymphoma patient,1SD
same,time on monotherapy until off study for disease progression,"[3]; B-cell lymphoma, 50 mg",five months
same,response,[3]; CLL patients (N=2),"1PR, 1SD"
same,time on continued monotherapy treatment,"[3]; CLL, 100 mg",13 months
same,time on monotherapy until off study for disease progression,"[3]; CLL, 200 mg",8 months
same,response,[3]; DLBCL patient,PD
same,time on monotherapy until off study for disease progression,"[3]; DLBCL, 200 mg",2 months
same,response,[3]; MZL patient,1PR
same,time on continued monotherapy treatment,[3]; MZL,11 months
same,cycles of monotherapy tolerated,[4]; China and U.S. trials,up to 23 cycles
same,maximum tolerated dose,"[4]; Compound A monotherapy, China and U.S. trials",had not been reached
same,exposures to Compound A,[4]; all patients at all of the dose levels,adequate exposures
same,"efficacy in WM, MZL, and SLL/CLL patients",[4]; orally 50-400 mg once daily,preliminary efficacy was observed; also recorded: Efficacy of the Compound has also been observed
same,safety and tolerability,"[4]; patients with relapsed/refractory CLL and B-cell lymphomas, China and U.S. trials",safe and well tolerated

# From patent publication US11622965B2, “Methods for treating lymphoid malignancies” (ZHEJIANG DTRM BIOPHARMA CO. LTD., priority 2017, dated 2023)
